According to patent US8247211B2, “Glycopeptide antibiotics” (American Cyanamid Company, priority 2001, dated 2012):
Values after ≈ are worked out from the molar mass of the structure shown.

Key:
Assay in all cases: In vitro antibacterial evaluation: minimum inhibitory concentration (MIC), broth dilution method
Type in all cases: cell-based
Enterococcus sp. = test system: Enterococcus sp.
Summary of the method: (§1)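 NCCLS M7-A2 broth dilution with Mueller-Hinton II, testing 64-0.06 μg/mL antibiotic against 5×10^5 CFU/mL inocula. Test strains include recent methicillin-, penicillin- or vancomycin-resistant clinical isolates. MIC is the lowest concentration preventing growth.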

Escherichia coli = test system: Escherichia coli
Summary of the method: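 An MIC is reported for each organism as the least concentration giving inhibition, using broth dilution over 64-0.06 μg/mL with a 5×10^5 CFU/mL inoculum.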

Staphylococcus sp. = conditions: broth dilution, 18 hours at 35° C.
Summary of the method: as §1

Streptococcus sp. = test system: Streptococcus sp.
Summary of the method: as §1

[1] = broth dilution, inoculum 5×10^5 CFU/mL, 18 hours at 35° C.

CC(c1ccccc1)C1NC(=O)CNC(=O)C(CO)NC(=O)C(C(O)C2CNC(=N)N2C2OC(CO)C(O)C(O)C2O)NC(=O)C(C(O)C2CNC(=N)N2)NC(=O)C(Cc2ccc(OC3OC(CO)C(OC4OC5COC(c6cccc(Oc7ccccc7)c6)OC5C(O)C4O)C(O)C3O)cc2)NC1=O (stereo not drawn) [Example 170, Cyclo[glycyl-β-methylphenylalanyl-O-[4-O-[4,6-O-(3-phenoxybenzylidene)hexopyranosyl]-hexopyranosyl]tyrosyl-3-(2-iminoimidazoliclin-4-yl)seryl-3-(3-hexopyranosyl-2-iminoimidazolidin-4-yl)serylseryl]]
MIC Enterococcus avium (GC 4558) (Enterococcus sp.; [1]): 4 µg/mL (≈ 2.71 µM)
MIC Enterococcus faecalis (ATCC 29212) (Enterococcus sp.; [1]): 4 µg/mL (≈ 2.71 µM)
MIC Enterococcus faecalis (GC 2242) (Enterococcus sp.; [1]): 4 µg/mL (≈ 2.71 µM)
MIC Enterococcus faecalis (GC 2691) (Enterococcus sp.; [1]): 4 µg/mL (≈ 2.71 µM)
MIC Enterococcus faecalis (GC 3059) (Enterococcus sp.; [1]): 4 µg/mL (≈ 2.71 µM)
MIC Enterococcus faecalis (GC 4552) (Enterococcus sp.; [1]): 4 µg/mL (≈ 2.71 µM)
MIC Enterococcus faecalis (GC 4553) (Enterococcus sp.; [1]): 4 µg/mL (≈ 2.71 µM)
MIC Enterococcus faecalis (GC 4554) (Enterococcus sp.; [1]): 2 µg/mL (≈ 1.36 µM)
MIC Enterococcus faecalis (GC 6189) (Enterococcus sp.; [1]): 4 µg/mL (≈ 2.71 µM)
MIC Enterococcus faecium (GC 2243) (Enterococcus sp.; [1]): 4 µg/mL (≈ 2.71 µM)
MIC Enterococcus faecium (GC 4556) (Enterococcus sp.; [1]): 4 µg/mL (≈ 2.71 µM)
MIC Enterococcus faecium (GC 4557) (Enterococcus sp.; [1]): 4 µg/mL (≈ 2.71 µM)
MIC Enterococcus faecalis (ATCC 29212) (Enterococcus sp.; strain ATCC 29212): 4 µg/mL (≈ 2.71 µM)
MIC Enterococcus faecalis (GC 2242) (Enterococcus sp.; strain GC 2242): 4 µg/mL (≈ 2.71 µM)
MIC Enterococcus faecium (GC 2243) (Enterococcus sp.; strain GC 2243): 4 µg/mL (≈ 2.71 µM)
MIC Enterococcus faecalis (GC 2691) (Enterococcus sp.; strain GC 2691): 4 µg/mL (≈ 2.71 µM)
MIC Enterococcus faecalis (GC 3059) (Enterococcus sp.; strain GC 3059): 4 µg/mL (≈ 2.71 µM)
MIC Enterococcus faecalis (GC 4552) (Enterococcus sp.; strain GC 4552): 4 µg/mL (≈ 2.71 µM)
MIC Enterococcus faecalis (GC 4553) (Enterococcus sp.; strain GC 4553): 4 µg/mL (≈ 2.71 µM)
MIC Enterococcus faecalis (GC 4554) (Enterococcus sp.; strain GC 4554): 2 µg/mL (≈ 1.36 µM)
MIC Enterococcus faecium (GC 4556) (Enterococcus sp.; strain GC 4556): 4 µg/mL (≈ 2.71 µM)
MIC Enterococcus faecium (GC 4557) (Enterococcus sp.; strain GC 4557): 4 µg/mL (≈ 2.71 µM)
MIC Enterococcus avium (GC 4558) (Enterococcus sp.; strain GC 4558): 4 µg/mL (≈ 2.71 µM)
MIC Enterococcus faecalis (GC 6189) (Enterococcus sp.; strain GC 6189): 4 µg/mL (≈ 2.71 µM)
MIC Escherichia coli (ATCC 25922) (Escherichia coli; strain ATCC 25922): >64 µg/mL
MIC Escherichia coli (GC 4559) (Escherichia coli; strain GC 4559): >64 µg/mL
MIC Escherichi coli (GC 4560) (Escherichia coli; strain GC 4560): 4 µg/mL (≈ 2.71 µM)
MIC Coagulase Negative Staphylococcus (GC 4547) (Staphylococcus sp.; 5×10^5 CFU/mL): 4 µg/mL (≈ 2.71 µM)
MIC Coagulase Negative Staphylococcus (GC 4548) (Staphylococcus sp.; 5×10^5 CFU/mL): 1 µg/mL (≈ 0.678 µM)
MIC Coagulase Negative Staphylococcus (GC 4549) (Staphylococcus sp.; 5×10^5 CFU/mL): 2 µg/mL (≈ 1.36 µM)
MIC Coagulase Negative Staphylococcus (GC 4551) (Staphylococcus sp.; 5×10^5 CFU/mL): 1 µg/mL (≈ 0.678 µM)
MIC Coagulase Negative Staphylococcus (GC 6257) (Staphylococcus sp.; 5×10^5 CFU/mL): 1 µg/mL (≈ 0.678 µM)
MIC Staphylococcus aureus (ATCC 29213) (Staphylococcus sp.; 5×10^5 CFU/mL): 4 µg/mL (≈ 2.71 µM)
MIC Staphylococcus aureus (GC 1131) (Staphylococcus sp.; 5×10^5 CFU/mL): 4 µg/mL (≈ 2.71 µM)
MIC Staphylococcus aureus (GC 3051) (Staphylococcus sp.; 5×10^5 CFU/mL): 4 µg/mL (≈ 2.71 µM)
MIC Staphylococcus aureus (GC 3053) (Staphylococcus sp.; 5×10^5 CFU/mL): 1 µg/mL (≈ 0.678 µM)
MIC Staphylococcus aureus (GC 4541) (Staphylococcus sp.; 5×10^5 CFU/mL): 2 µg/mL (≈ 1.36 µM)
MIC Staphylococcus aureus (GC 4542) (Staphylococcus sp.; 5×10^5 CFU/mL): 4 µg/mL (≈ 2.71 µM)
MIC Staphylococcus aureus (GC 4544) (Staphylococcus sp.; 5×10^5 CFU/mL): 2 µg/mL (≈ 1.36 µM)
MIC Staphylococcus aureus (GC 4545) (Staphylococcus sp.; 5×10^5 CFU/mL): 4 µg/mL (≈ 2.71 µM)
MIC Staphylococcus aureus-SMITH (GC 4543) (Staphylococcus sp.; 5×10^5 CFU/mL): 4 µg/mL (≈ 2.71 µM)
MIC Staphylococcus haemolyticus (GC 4546) (Staphylococcus sp.; 5×10^5 CFU/mL): 8 µg/mL (≈ 5.42 µM)
MIC Staphylococcus aureus (ATCC 29213) (Staphylococcus sp.; strain ATCC 29213): 4 µg/mL (≈ 2.71 µM)
MIC Staphylococcus aureus (GC 1131) (Staphylococcus sp.; strain GC 1131): 4 µg/mL (≈ 2.71 µM)
MIC Staphylococcus aureus (GC 3051) (Staphylococcus sp.; strain GC 3051): 4 µg/mL (≈ 2.71 µM)
MIC Staphylococcus aureus (GC 3053) (Staphylococcus sp.; strain GC 3053): 1 µg/mL (≈ 0.678 µM)
MIC Staphylococcus aureus (GC 4541) (Staphylococcus sp.; strain GC 4541): 2 µg/mL (≈ 1.36 µM)
MIC Staphylococcus aureus (GC 4542) (Staphylococcus sp.; strain GC 4542): 4 µg/mL (≈ 2.71 µM)
MIC Staphylococcus aureus (GC 4544) (Staphylococcus sp.; strain GC 4544): 2 µg/mL (≈ 1.36 µM)
MIC Staphylococcus aureus (GC 4545) (Staphylococcus sp.; strain GC 4545): 4 µg/mL (≈ 2.71 µM)
MIC Streptococcus agalactiae (GC 4564) (Streptococcus sp.; [1]): <0.06 µg/mL
MIC Streptococcus pneumoniae (ATCC 6301) (Streptococcus sp.; [1]): <0.06 µg/mL
MIC Streptococcus pneumoniae (GC 1894) (Streptococcus sp.; [1]): <0.06 µg/mL
MIC Streptococcus pneumoniae (GC 4565) (Streptococcus sp.; [1]): <0.06 µg/mL
MIC Streptococcus pyogenes (GC 4563) (Streptococcus sp.; [1]): <0.06 µg/mL
MIC Streptococcus pneumoniae (ATCC 6301) (Streptococcus sp.; strain ATCC 6301): <0.06 µg/mL
MIC Streptococcus pneumoniae (GC 1894) (Streptococcus sp.; strain GC 1894): <0.06 µg/mL
MIC Streptococcus pyogenes (GC 4563) (Streptococcus sp.; strain GC 4563): <0.06 µg/mL
MIC Streptococcus agalactiae (GC 4564) (Streptococcus sp.; strain GC 4564): <0.06 µg/mL
MIC Streptococcus pneumoniae (GC 4565) (Streptococcus sp.; strain GC 4565): <0.06 µg/mL
